Experimental data reported in patent US11344009B2, “All sterile males of culicine mosquitoes: a method of creation” (priority 2014, dated 2022).

Tests used:
[1] = test system: Ae. aegypti strain (Hanoi1); experiment: Transient expression of long dsmRNA Tra-2 RNAi construct (AaKLC2.1-long-02) injected into embryos; female lethality induced by different Dox concentrations; type: in vivo, Aedes aegypti; conditions: for Hatched rate (hatched/injected embryos): 500 embryos injected with AaKLC2.1-long-02
Description: In this example, we show the transient expression of a Tra-2 RNAi construct which created long dsmRNAs. The detail method to create this construct was described in Example 4. The promoter driving rtTA protein was AaKLC2.1. In the presence of doxycycline (Dox), Tet-On Advanced binds to the tetracycline response element in pTre-tight, and produces high-level tran-scription of the downstream gene. Ae. aegypti strain (Hanoi1) was fed on blood containing three different Dox concentrations to produce eggs containing different Dox doses (mg/litre). The construct named AaKLC2.1-long-02 after Maxiprep purification was diluted in 1^x injection buffer at 1.6 μg/μl. Embryos were desiccated briefly in 50 sec and stuck into a plastic cover slip via a piece of double sticky tape. The Voltalef oil was used to cover the embryos. After injection, the cover slip was then immediately transferred into a cover slip staining rack which was kept in a sealed plastic box with 100% humidity at 27° C. for 3-4 days and then hatched in Dox deoxygenated water. 500 embryos were injected in each Dox concentration. Larvae were reared under standard conditions. Three different Dox concentrations which were equivalent to the concentrations in blood meals were added to the rearing water. The sex ratio among survivors of each Dox concentration were shown in the below table.

[2] = test system: wMel Wolbachia in Ae. albopictus strains (Hanoi 1 and Laos2); experiment: Dox challenge of Wolbachia trans-infected lines, PCR re-test for presence of Wolbachia (wsp primers 81F/691R); type: in vivo, Aedes albopictus; conditions: for Pupae (number from 50 3rd-4th larvae on Dox) / 3 day old adult (on Dox), number: Dox 30 mg/L; for 3 day old adult (on Dox), number: 4-5 days from third larvae to 3 day old adults; for 81F/691R PCR test, number with Wolbachia / 81F/691R PCR test, share with Wolbachia: after Dox 30 mg/L challenge
Protocol: Ae. albopictus strains (Hanoi 1 and Laos2) were trans-infected with Wolbachia from a Drosophila line (Oregon-R). This fly carries wMel Wolbachia. Drosophila embryos were collected as mentioned above. 1-2 day old virgin females were anaesthetized and microinjected directly in the thorax. […] These lines were maintained at a standard condition and challenged with the presence of Dox (30 mg/L) in 4-5 days from the third larvae to 3 day old adults. They were PCR re-tested for the presence of Wolbachia after the challenge using universal wsp primers 81F and 691R^38.

Tra-2 = experiment: Q-PCR of Tra-2 knockdown level in Tra-2 RNAi/Tet-on transgenic males induced by Dox; type: in vivo, Aedes aegypti
Protocol: (§1) The Ae. aegypti strain named Hanoi1 was transformed with a Tra-2 RNAi (long dsmRNA) construct. This construct was assembled with rtTA(pTet-on advanced) and pTre-tight regulatory system as mentioned in Example 1. The strain was challenged with Dox three different concentrations (0.3 mg/L; 3 mg/L and 30 mg/L) between the third larvae stage and 3 day old adult. The males from each Dox concentration challenge were divided into two groups; one group was Q-PCR to reveal the knockdown level of Tra-2. The other group was outcrossed with wild type females. Total RNA from Hanoi 1 wild type males and Tra-2 RNAi/Hanoi 1 transgenic males were isolated in pools of 5 males in 3 biological replicates. The primers used for Actin5C (endogenous reference gene) were F: (5′-[…]-3′) (SEQ ID NO: 53) and R: (5′-[…]-3′) (SEQ ID NO: 54) which produced a 125 bp fragment. Primers used for amplifying Tra-2, which produced a 125 bp fragment nearby the Tra-2 RNAi target site, were: Forward: (5′ […] 3′) (SEQ ID NO: 55) and Reverse: (5′ […] 3′) (SEQ ID NO: 56). Three biological replicates were carried out in each Dox condition. The knockdown of expression levels were calculated by the relative standard curve method (Applied Biosystems), in which Act5C as an endogenous reference and wild type Hanoi 1 as an exogenous calibrator. PCR cycle was 95° C. for 15 mins; 45 cycles of 10 sec at 95° C., 10 sec at XC, 20 sec at 72° C., plate reading. X is annealing temperature, of which 59° C. for the reference gene Actin5C and 55° C. was used for Tra-2 primers. […] 0.3 mg/L caused a slight difference in comparison with wild type (96.98% wild type). […] See details in FIG. 2.

[3] = test system: Ae. aegypti strain Hanoi1 transformed with Tra-2 RNAi (long dsmRNA) construct; experiment: Outcross of Dox-induced homozygous Tra-2 RNAi transgenic males with wild type virgin females, sex ratio of the crosses; type: in vivo, Aedes aegypti
Protocol: as §1
10 homozygous males (3 day old) from each concentration were crossed with 10 wild type virgin females.

## C[C@H]1c2cccc(O)c2C(=O)C2=C(O)[C@]3(O)C(=O)C(C(N)=O)=C(O)[C@@H](N(C)C)[C@@H]3[C@@H](O)[C@@H]21 [Dox, Doxycycline]
[1]; 0.3 mg of Dox/L
  Hatched rate: (24.4) %
  Hatched rate (hatched/injected embryos): 122/500
[1]; 3 mg of Dox/L
  Hatched rate: (18.6) %
  Hatched rate (hatched/injected embryos): 93/500
[1]; 30 mg of Dox/L
  Hatched rate: (14.8) %
  Hatched rate (hatched/injected embryos): 74/500
[2]; wMel/Ae.albopictus Hanoi 1
  Pupae (number from 50 3rd-4th larvae on Dox): 50
  3 day old adult (on Dox), number: 49
  81F/691R PCR test, number with Wolbachia: 49
  81F/691R PCR test, share with Wolbachia: 100%
[2]; wMel/Ae.albopictus Laos2
  Pupae (number from 50 3rd-4th larvae on Dox): 50
  3 day old adult (on Dox), number: 50
  81F/691R PCR test, number with Wolbachia: 50
  81F/691R PCR test, share with Wolbachia: 100%
Tra-2; Dox 0.3 mg/L, third larvae stage to 3 day old adult
  Expression level of Tra-2 in males: 96.98 % wild type
Tra-2; Dox 3 mg/L, third larvae stage to 3 day old adult
  Expression level of Tra-2 in males: 73.7 % wild type
Tra-2; Dox 30 mg/L, after 5 days treatment
  Expression level of Tra-2 in males: 33.26 % wild type
[3]; males induced at 0.3 mg/L Dox
  Hatch rate (value in brackets): 95.40
  Male ratio (value in brackets): 51.53
[3]; males induced at 3 mg/L Dox
  Hatch rate (value in brackets): 90.60
  Male ratio (value in brackets): 64.88
[3]; males induced at 30 mg/L Dox
  Hatch rate (value in brackets): 91.60
  Male ratio (value in brackets): 93.47
